Laboratory results reported in paper PMC5111045, “Modulation of NMDA channel gating by Ca^2+ and Cd^2+ binding to the external pore mouth” (Scientific Reports, 2016).
Where “and” joins values, the source holds several entries; their conditions need not be identical. Equal values may be shown once. Read-outs that look alike come from different tables or passages of the source.

Assays:
[1] = biological target: T1, D658AE661AE662A triple mutant NMDA channel (Rattus norvegicus, UniProt P35439+Q00960, D658A/E661A/E662A); experiment: Outside-out patch recordings, D658AE661AE662A triple mutant NMDA channel; format: cell-based
T1 construct: expressed in transfected cells; host or cells: Xenopus laevis oocytes (cRNA injection)
Description: (§1) The rat GluN1a variant and GluN2B cDNA clones were used in this study. Point mutations were made by site-directed mutagenesis using the QuickChange Site-Directed Mutagenesis kit (Stratagene, La Jolla, CA). Mutations were verified by DNA sequencing to ensure the lack of any inadvertent mutations. The capped cRNA transcripts were then synthesized using T7 and T3 mMESSAGE mMACHINE transcription kits (Ambion, Austin, TX), and were stored at −80 °C.
(§2) This study was carried out in accordance with the ethical information guidelines of the National Taiwan University College of Medicine. The protocols for the care and use of animals were approved by the National Taiwan University College of Medicine and College of Public Health Institutional Animal Care and Use Committee (IACUC). All efforts were made to minimize animal suffering. […]
(§3) Oocytes were placed in a recording chamber containing Mg^2+-free bath solution (150 mM NaMeSO3, 5 mM NaCl, and 10 mM HEPES; pH 7.4). […] The NMDA currents were recorded at a membrane potential of −70 mV and at room temperature (~25 °C) with an […] amplifier, filtered at 1 kHz with a four-pole Bessel filter, digitized at 500 μs intervals, and stored using a Digidata-1322A analog/digital interface along with the pCLAMP software (all from MDS Analytical Technologies, Sunnyvale, CA). […]

[2] = biological target: E661A mutant NMDA channel; experiment: Outside-out patch recordings, E661A mutant NMDA channel; format: cell-based, rat; settings: Hill coefficient of 1 assumed
Description: as §1, §2, §3

[3] = biological target: T2, T647A (GluN2B) mutant NMDA channel (Rattus norvegicus, UniProt P35439+Q00960, T647A); experiment: Outside-out patch recordings, T647A (GluN2B) mutant NMDA channel; format: cell-based; settings: 30 μM Cd2+
T2 construct: expressed in transfected cells; host or cells: Xenopus laevis oocytes (cRNA injection)
T2 sequence (Q00960 27-1482 T647A, other chains not shown): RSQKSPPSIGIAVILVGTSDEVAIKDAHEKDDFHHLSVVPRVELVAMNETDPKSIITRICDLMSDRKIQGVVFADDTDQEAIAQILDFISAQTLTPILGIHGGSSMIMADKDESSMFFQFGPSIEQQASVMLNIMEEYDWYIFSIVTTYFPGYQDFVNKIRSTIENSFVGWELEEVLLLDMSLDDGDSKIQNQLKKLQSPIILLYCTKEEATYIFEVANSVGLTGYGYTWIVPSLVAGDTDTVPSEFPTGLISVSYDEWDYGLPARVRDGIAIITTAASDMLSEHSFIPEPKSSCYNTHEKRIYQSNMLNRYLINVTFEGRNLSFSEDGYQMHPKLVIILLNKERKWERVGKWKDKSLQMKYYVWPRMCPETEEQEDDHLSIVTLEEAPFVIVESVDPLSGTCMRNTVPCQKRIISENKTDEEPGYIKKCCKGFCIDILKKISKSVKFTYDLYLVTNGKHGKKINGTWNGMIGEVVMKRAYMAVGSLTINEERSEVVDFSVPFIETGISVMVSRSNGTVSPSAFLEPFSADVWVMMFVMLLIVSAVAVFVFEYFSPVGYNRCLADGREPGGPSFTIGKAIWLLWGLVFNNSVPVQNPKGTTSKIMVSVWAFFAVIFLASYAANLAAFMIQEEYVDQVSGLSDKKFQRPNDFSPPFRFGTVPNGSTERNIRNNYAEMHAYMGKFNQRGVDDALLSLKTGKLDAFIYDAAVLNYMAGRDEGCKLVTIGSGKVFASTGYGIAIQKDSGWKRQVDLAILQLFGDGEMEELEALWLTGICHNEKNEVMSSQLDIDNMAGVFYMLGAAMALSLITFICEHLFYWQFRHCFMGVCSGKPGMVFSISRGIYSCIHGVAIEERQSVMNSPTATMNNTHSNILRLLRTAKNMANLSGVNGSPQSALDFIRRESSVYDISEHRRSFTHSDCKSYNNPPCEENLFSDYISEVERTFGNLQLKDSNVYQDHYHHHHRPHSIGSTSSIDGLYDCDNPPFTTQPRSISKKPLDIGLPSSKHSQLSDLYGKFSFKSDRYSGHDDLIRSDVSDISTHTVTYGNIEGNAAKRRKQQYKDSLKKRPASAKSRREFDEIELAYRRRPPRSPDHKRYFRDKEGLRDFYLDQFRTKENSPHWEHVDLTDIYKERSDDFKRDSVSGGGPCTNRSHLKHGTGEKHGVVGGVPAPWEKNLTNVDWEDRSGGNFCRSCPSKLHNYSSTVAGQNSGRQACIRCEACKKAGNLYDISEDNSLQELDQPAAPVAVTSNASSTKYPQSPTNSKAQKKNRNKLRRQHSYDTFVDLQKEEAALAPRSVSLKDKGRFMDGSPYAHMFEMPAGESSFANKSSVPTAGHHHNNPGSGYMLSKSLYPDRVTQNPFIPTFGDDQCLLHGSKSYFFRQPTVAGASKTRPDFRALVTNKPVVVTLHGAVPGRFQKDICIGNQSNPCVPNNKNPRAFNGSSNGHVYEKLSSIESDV
Description: as §1
(§4) This study was carried out in accordance with the ethical information guidelines of the National Taiwan University College of Medicine. The protocols for the care and use of animals were approved by the National Taiwan University College of Medicine and College of Public Health Institutional Animal Care and Use Committee (IACUC). All efforts were made to minimize animal suffering. Adult female Xenopus laevis were anesthetized, and ovarian lobes containing stage V or VI oocytes were removed. Oocytes were dispersed after manual disruption of the egg sac, and were digested for 1 hr with collagenase type I (2 mg/ml) to remove the follicular layer. A mixture of GluN1a variant and GluN2B cRNAs with a ratio of 1:5 (i.e., 0.1–4 ng of GluN1a variant and 0.5–20 ng of GluN2B) (Kashiwagi et al. 2002) was injected into oocytes. Oocytes were maintained in the culture medium (96 mM NaCl, 2 mM KCl, 1.8 mM MgCl2, 1.8 mM CaCl2, 5 mM HEPES, and 50 ug/ml gentamycin, pH 7.6) at 18 °C for 2–3 days before electrophysiological recordings.
as §3

[4] = biological target: T3, D658A mutant NMDA channel (Rattus norvegicus, UniProt P35439+Q00960, D658A); experiment: Outside-out patch recordings, D658A mutant NMDA channel; format: cell-based; settings: 30 μM Cd2+ between NMDA pulses; P = 0.034
T3 construct: expressed in transfected cells; host or cells: Xenopus laevis oocytes (cRNA injection)
Description: as §1, §2, §3

[5] = biological target: E662A mutant NMDA channel; experiment: Outside-out patch recordings, E662A mutant NMDA channel; format: cell-based, rat; settings: Hill coefficient of 1 assumed
Description: as §1, §2, §3

[6] = biological target: T4, E661AE662A double mutant NMDA channel (Rattus norvegicus, UniProt P35439+Q00960, E661A/E662A); experiment: Outside-out patch recordings, E661AE662A double mutant NMDA channel; format: cell-based; settings: for coupling coefficient ((KdWT × KdE661AE662A)/(KdE661A × KdE662A)), double mutant cycle analysis: mutations E661A and E662A; for Kd: E661AE662A, Hill coefficient of 1 assumed
T4 construct: expressed in transfected cells; host or cells: Xenopus laevis oocytes (cRNA injection)
T4 sequence (Q00960 27-1482, other chains not shown): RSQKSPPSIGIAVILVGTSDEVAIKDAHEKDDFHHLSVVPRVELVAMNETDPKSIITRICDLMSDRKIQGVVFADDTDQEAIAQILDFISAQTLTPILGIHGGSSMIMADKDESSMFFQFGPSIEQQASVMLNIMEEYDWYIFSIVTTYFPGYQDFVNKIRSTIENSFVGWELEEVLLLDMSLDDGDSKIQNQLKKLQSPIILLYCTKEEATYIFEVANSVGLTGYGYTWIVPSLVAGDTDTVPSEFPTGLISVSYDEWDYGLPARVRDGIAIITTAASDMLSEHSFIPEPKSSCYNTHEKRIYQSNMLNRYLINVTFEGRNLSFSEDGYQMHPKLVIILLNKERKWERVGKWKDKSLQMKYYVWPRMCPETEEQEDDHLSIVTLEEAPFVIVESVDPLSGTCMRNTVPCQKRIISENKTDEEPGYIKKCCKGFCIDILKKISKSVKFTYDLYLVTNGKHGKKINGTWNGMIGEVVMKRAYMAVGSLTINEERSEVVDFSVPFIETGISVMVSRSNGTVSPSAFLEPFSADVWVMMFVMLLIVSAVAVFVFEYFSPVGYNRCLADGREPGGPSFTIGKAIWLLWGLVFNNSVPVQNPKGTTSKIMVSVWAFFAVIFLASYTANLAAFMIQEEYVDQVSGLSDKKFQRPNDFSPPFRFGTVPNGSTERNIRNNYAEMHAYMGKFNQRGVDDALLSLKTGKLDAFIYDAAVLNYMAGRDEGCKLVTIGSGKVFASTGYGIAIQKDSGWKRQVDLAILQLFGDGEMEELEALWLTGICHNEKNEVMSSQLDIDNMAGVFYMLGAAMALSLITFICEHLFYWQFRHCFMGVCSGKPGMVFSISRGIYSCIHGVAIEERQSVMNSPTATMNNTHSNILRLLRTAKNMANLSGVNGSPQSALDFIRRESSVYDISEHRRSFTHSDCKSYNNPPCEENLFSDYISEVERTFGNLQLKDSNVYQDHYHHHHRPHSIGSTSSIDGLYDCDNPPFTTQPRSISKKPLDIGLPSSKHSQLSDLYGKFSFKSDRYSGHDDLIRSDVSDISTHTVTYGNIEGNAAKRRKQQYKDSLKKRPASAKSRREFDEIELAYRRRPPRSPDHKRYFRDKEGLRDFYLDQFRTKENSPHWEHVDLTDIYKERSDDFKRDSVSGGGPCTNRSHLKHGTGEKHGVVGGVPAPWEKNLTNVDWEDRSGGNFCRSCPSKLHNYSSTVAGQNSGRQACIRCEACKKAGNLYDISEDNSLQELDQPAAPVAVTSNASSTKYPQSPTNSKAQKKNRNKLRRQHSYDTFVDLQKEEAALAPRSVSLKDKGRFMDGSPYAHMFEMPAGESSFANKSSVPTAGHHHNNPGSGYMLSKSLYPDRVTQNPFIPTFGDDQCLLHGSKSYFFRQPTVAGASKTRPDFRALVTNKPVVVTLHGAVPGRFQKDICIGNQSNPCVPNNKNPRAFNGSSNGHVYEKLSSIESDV
Description: as §1, §4
Oocytes were placed in a recording chamber containing Mg^2+-free bath solution (150 mM NaMeSO3, 5 mM NaCl, and 10 mM HEPES; pH 7.4). Outside-out patch recordings were obtained using fire-polished pipettes pulled from borosilicate capillaries (outer diameter, 1.55–1.60 mm; Hilgenberg, Malsfeld, Germany). Recording pipettes ([…]) were filled with the pipette solution containing 150 mM NaMeSO3, 5 mM NaCl, 5 mM EGTA, and 10 mM HEPES (pH 7.4). A seal was formed, and the outside-out patch configuration was obtained in Tyrode’s solution (150 mM NaCl, 4 mM KCl, 2 mM MgCl2, 2 mM CaCl2, and 10 mM HEPES; pH 7.4). The patch was then lifted from the bottom of the chamber and moved in front of a set of “theta glass” tubes (2.0 mm outer diameter pulled to an opening of ~300 μm in width; Warner Instrument, Hamden, CT) emitting external recording solutions. The standard external solution was Mg^2+-free Ca^2+-free Tyrode’s solution (pH 7.4), but 2 mM Ca^2+ or 0.1–100 μM Cd^2+ may be added to the external recording solution as specified in each different experimental condition. The glass-tube holder was connected to a stepper motor (SF-77B perfusion system, Warner Instrument) to achieve fast switch for rapid solution change. Drugs and salts were purchased from Sigma (St. Louis, MO). NMDA, glycine, and Cd^2+ were dissolved in water to make 100, 100, and 10 mM stock solutions, respectively. The stock solutions were then diluted into the external recording solution to make 1 to 100 μM Cd^2+, 1 to 300 μM NMDA, and 30 μM glycine. The NMDA currents were recorded at a membrane potential of −70 mV and at room temperature (~25 °C) with an […] amplifier, filtered at 1 kHz with a four-pole Bessel filter, digitized at 500 μs intervals, and stored using a Digidata-1322A analog/digital interface along with the pCLAMP software (all from MDS Analytical Technologies, Sunnyvale, CA). […]

[7] = biological target: T5, NMDA receptor channel (GluN1a variant/GluN2B), wild-type (Rattus norvegicus, UniProt P35439+Q00960); experiment: Outside-out patch recordings of NMDA receptor currents, wild-type channel expressed in Xenopus oocytes; format: cell-based
T5 construct: expressed in transfected cells; host or cells: Xenopus laevis oocytes (cRNA injection)
T5 sequence (Q00960 27-1482, other chains not shown): as above
Description: as §1, §4
Oocytes were placed in a recording chamber containing Mg^2+-free bath solution (150 mM NaMeSO3, 5 mM NaCl, and 10 mM HEPES; pH 7.4). Outside-out patch recordings were obtained using fire-polished pipettes pulled from borosilicate capillaries (outer diameter, 1.55–1.60 mm; Hilgenberg, Malsfeld, Germany). Recording pipettes ([…]) were filled with the pipette solution containing 150 mM NaMeSO3, 5 mM NaCl, 5 mM EGTA, and 10 mM HEPES (pH 7.4). A seal was formed, and the outside-out patch configuration was obtained in Tyrode’s solution (150 mM NaCl, 4 mM KCl, 2 mM MgCl2, 2 mM CaCl2, and 10 mM HEPES; pH 7.4). The patch was then lifted from the bottom of the chamber and moved in front of a set of “theta glass” tubes (2.0 mm outer diameter pulled to an opening of ~300 μm in width; Warner Instrument, Hamden, CT) emitting external recording solutions. The standard external solution was Mg^2+-free Ca^2+-free Tyrode’s solution (pH 7.4), but 2 mM Ca^2+ or 0.1–100 μM Cd^2+ may be added to the external recording solution as specified in each different experimental condition. The glass-tube holder was connected to a stepper motor (SF-77B perfusion system, Warner Instrument) to achieve fast switch for rapid solution change. Drugs and salts were purchased from Sigma (St. Louis, MO). NMDA, glycine, and Cd^2+ were dissolved in water to make 100, 100, and 10 mM stock solutions, respectively. The stock solutions were then diluted into the external recording solution to make 1 to 100 μM Cd^2+, 1 to 300 μM NMDA, and 30 μM glycine. The NMDA currents were recorded at a membrane potential of −70 mV and at room temperature (~25 °C) with an […] amplifier, filtered at 1 kHz with a four-pole Bessel filter, digitized at 500 μs intervals, and stored using a Digidata-1322A analog/digital interface along with the pCLAMP software (all from MDS Analytical Technologies, Sunnyvale, CA). To plot the activation and the desensitization curves, a patch was moved from the NMDA- and glycine-free external solution to the external solution containing 0 to 100 μM NMDA and 30 μM glycine for 3 s (the desensitization prepulse), and then moved to another external solution containing 300 μM NMDA and 30 μM glycine for 3 s (the test pulse) before being moved back to the NMDA-free external solution again. The amplitude of the sustained currents in the desensitization prepulse in each different concentration of NMDA is normalized to the maximal current and plotted against the NMDA concentration to obtain the activation curve. […]

[8] = Fig. 5e inset, read-out: apparent dissociation constant, closed channel, derived from relative peak current in 30 μM Cd2+
[9] = Fig. 6e inset, read-out: apparent dissociation constant, activated channel, derived from relative sustained current in 30 μM Cd2+

With `[Cd+2]` [Cd^2+] the “effect on peak current, closed channel, compared with WT” value ([1]; 30 μM Cd2+ between NMDA pulses, P = 0.0093) was “less pronounced”, the “effect on sustained current, activated channel, compared with WT” value ([1]; 30 μM Cd2+ during NMDA pulse, P = 0.00031) was “less pronounced” and the Kd [2, 8] was 40.7 µM. For the same compound, the Kd [2, 9] was 7.7 µM, the “relative hook current after wash-off of agonists and blocking cation, compared with WT channel” value ([3]; P = 0.00012) was “significantly larger hook current” and the “inhibitory effect on sustained current (relative current) compared with WT channel” value ([3]; n = 8 vs WT n = 6, P = 0.00037) was “significantly smaller effect”. For the same compound, the “effect on peak current, closed channel, compared with WT” value [4] was “less pronounced”, the Kd [5, 8] was 37.3 µM and the Kd [5, 9] was 5.6 µM. The “coupling coefficient ((KdWT × KdE661AE662A)/(KdE661A × KdE662A)), double mutant cycle analysis” value ([6]; Cd2+ binding to the activated NMDA channel) was 1.03, the “coupling coefficient ((KdWT × KdE661AE662A)/(KdE661A × KdE662A)), double mutant cycle analysis” value ([6]; Cd2+ binding to the closed NMDA channel) was 0.90 and the Kd [6, 8] was 70.2 µM. The Kd [6, 9] was 13.9 µM, the “shift of the activation curve” value ([7]; 3 μM Cd2+, n = 4) was “moderate leftward shift” and the “shift of the desensitization curve” value ([7]; 3 μM Cd2+, n = 4) was “moderate leftward shift”. The “effect on NMDAR currents relative to 2 mM Ca2+” value ([7]; 30 μM Cd2+ vs 2 mM Ca2+ in the extracellular milieu) was “stronger effects than 2 mM Ca^2+”, the Kd ([7]; activated (steady-state mixture of open and desensitized) channel, Cd2+ during the NMDA pulse, Fig. 3b, n = 7, read-out: apparent dissociation constant (Kd), Hill fit of relative sustained current) was roughly 1.6 µM and the Kd ([7]; activated channel, sustained current, mean ± SEM, read-out: Kd from fits of each individual data set, Fig. 3b) was 1.4 ± 0.16 µM. The “Hill coefficient n, relative sustained current” value ([7]; activated channel, Fig. 3b) was 1, the “slope of unbinding rates against Cd2+ concentration” value ([7]; activated channel, essentially zero, n = 4) was ~ 0.01 M^−1s^−1 and the “macroscopic on rate (slope of binding rates against Cd2+ concentration)” value ([7]; activated channel, fast application of Cd2+, n = 4) was 430000 M⁻¹ s⁻¹. The “intercept of binding rates against Cd2+ concentration” value ([7]; activated channel, linear regression, n = 4) was 9.4 s⁻¹, the “macroscopic off rate (intercept of unbinding rates)” value ([7]; activated channel, wash-off of Cd2+, n = 4) was 6.8 s⁻¹ and the Kd ([7]; closed (resting) channel, Cd2+ applied in the interpulse phase, Fig. 2b, n = 7, read-out: apparent dissociation constant (Kd), Hill fit of relative peak current) was 6 µM and ~6 µM. For the same compound, the Kd ([7]; closed channel, activation speed, mean ± SEM, read-out: Kd from fits of each individual data set, Fig. 2d) was 3.4 ± 0.66 µM, the Kd ([7]; closed channel, peak current, mean ± SEM, read-out: Kd from fits of each individual data set, Fig. 2b) was 7.6 ± 1.2 µM and the Kd ([7]; closed channel, Cd2+ in the interpulse phase, Fig. 2d, n = 4, read-out: apparent dissociation constant (Kd), Hill fit of relative initial activation speed) was 4.5 µM and ~4.5 µM. The “Hill coefficient n, relative peak current” value ([7]; closed channel, Fig. 2b) was 1, the “Hill coefficient n, relative activation speed” value ([7]; closed channel, Fig. 2d) was 1 and the Kd ([7]; equal to KCd2+,o × m/r from model fits in 3 μM Cd2+, not a precise estimate, read-out: KCd2+,d (dissociation constant for Cd2+ binding to the desensitized NMDA channel)) was 1.25 µM. The Kd ([7]; model fit (equations 2 and 4) to activation and desensitization data in 3 μM Cd2+, not a precise estimate, read-out: KCd2+,o (dissociation constant for Cd2+ binding to the open NMDA channel)) was 2.5 µM, the “r value, r = m × (KCd2+,o/KCd2+,d)” value ([7]; model fit to activation and desensitization data in 3 μM Cd2+, m set at 4) was 8 and the Kd ([7]; ratio between the macroscopic off rate and on rate, Fig. 4a inset, read-out: rough estimate of the dissociation constant of Cd2+ to the open state) was roughly 16 µM. The Kd ([7]; wild-type, Hill coefficient of 1 assumed, Fig. 5e inset, read-out: apparent dissociation constant, closed channel, derived from relative peak current in 30 μM Cd2+) was 19.6 µM and the Kd ([7]; wild-type, Hill coefficient of 1 assumed, Fig. 6e inset, read-out: apparent dissociation constant, activated channel, derived from relative sustained current in 30 μM Cd2+) was 3.2 µM.

`CN[C@H](CC(=O)O)C(=O)O` [NMDA] was tested, and the Kd ([7]; read-out: apparent dissociation constant of NMDA (KN), fit to activation data) was 47 µM and the Kd ([7]; read-out: apparent dissociation constant of NMDA (KN), fit to desensitization data) was 35 µM.
